# Values of other authors in US8435575B2, “Use of gingerols for cancer patients suffering from nausea and emesis induced by chemotherapy” (priority 2010, dated 2013).
# “Also recorded” adds a separate entry of the source.
# Columns and labels:
# [1] = system: vection-induced motion sickness; details: college students with self-reported high susceptibility to motion sickness
# [2] = system: post surgical nausea and vomiting; details: oral ginger, 1.25 mg intravenous droperidol; 24 hour period following surgery
# [3] = system: post-operative nausea and vomiting
# [4] = system: post operative vomiting and nausea
structure (smiles),measurement,setting,value
CN(C)CCOC(c1ccccc1)c1ccccc1 [diphenhydramine],"preventing gastrointestinal symptoms caused by vection-induced motion sickness, versus dried chickweed herb placebo",[1],more effective than dried chickweed herb placebo
O=C(CCCN1CC=C(n2c(=O)[nH]c3ccccc32)CC1)c1ccc(F)cc1 [droperidol],statistically significant decrease in post-operative nausea or vomiting versus placebo,[2],no differences; also recorded: Neither drug showed a
CCN(CC)CCNC(=O)c1cc(Cl)c(N)cc1OC [metochlopramide],post-operative nausea and vomiting control versus placebo,"[3]; 1.0 g ginger or 10 mg metochlopramide orally prior to gynecological surgery, P < .05",significantly more effective than placebo
same,post-operative vomiting versus placebo,[3]; both active drugs vs placebo,less vomiting
same,post-operative nausea versus placebo,"[4]; 1 gram ginger powder or metochlopramide one hour prior to anaesthesia, laparoscopic gynaecological surgery",significantly more effective than placebo
same,patients nauseated,"[4]; after laparoscopic gynaecological surgery, 41% with placebo","placebo, 27%"
same,frequency of emesis between the three arms,[4]; ginger vs metochlopramide vs placebo,no significant differences
